According to patent publication US20190093079A1, “METHODS FOR CONTROLLED PROLIFERATION OF STEM CELLS / GENERATING INNER EAR HAIR CELLS USING GSK-3-ALPHA INHIBITORS” (Frequency Therapeutics, Inc., priority 2016, published 2019):
“Also recorded” adds a separate entry of the source.

Key:
GSK3-alpha [1] = target: T1, GSK3-alpha (Homo sapiens, UniProt P49840); settings: cited from earlier work; for IC50: potency = IC50, literature values
GSK3-beta = GSK3-beta (Homo sapiens, UniProt P49841); settings: potency = IC50; literature values; cited from earlier work
GSK3-beta, sequence (P49841 whole entry, species assumed): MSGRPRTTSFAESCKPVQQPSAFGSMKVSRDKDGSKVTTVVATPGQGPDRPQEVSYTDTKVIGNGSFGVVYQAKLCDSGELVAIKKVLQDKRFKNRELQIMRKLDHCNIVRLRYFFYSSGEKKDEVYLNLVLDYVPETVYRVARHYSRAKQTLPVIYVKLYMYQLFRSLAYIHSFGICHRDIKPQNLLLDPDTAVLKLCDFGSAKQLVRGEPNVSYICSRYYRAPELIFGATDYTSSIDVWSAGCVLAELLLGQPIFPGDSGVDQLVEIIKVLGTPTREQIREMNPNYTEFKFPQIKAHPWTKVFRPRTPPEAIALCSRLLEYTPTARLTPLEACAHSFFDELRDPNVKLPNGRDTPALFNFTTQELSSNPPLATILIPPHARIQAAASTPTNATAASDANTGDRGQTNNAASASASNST

GSK3-alpha [2] = target: T1, GSK3-alpha; test: GSK3-alpha potency (IC50), kinase assay; format: biochemical; settings: GSK3-alpha/GSK3-beta selectivity ratio = IC50 GSK3-beta divided by IC50 GSK3-alpha
[3] = tested on: Lgr5-GFP inner ear progenitor cells; test: Expansion of Lgr5-GFP inner ear progenitor cells in Matrigel 3D culture; format: cell-based, mouse; settings: 10 days culture, background of EGF, bFGF, IGF-1 and VPA; FIGS. 1A and 2A
Experimental: Isolation of stem cells from the inner ear: All animal studies were conducted under an approved institutional protocol according to National Institutes of Health guidelines. For experiments with neonatal mice (postnatal days 1-3), the cochleae were dissected in HBSS and the organ of Corti was separated from the stria vascularis and the modiolus. The organs of Corti were then treated with Cell Recovery Solution (Corning) for 1 h to separate cochlear epithelium from the underlying mesenchyme. Epithelia were then collected and treated with TrypLE (Life Technologies) for 15-20 minutes at 37° C. Single cells obtained by mechanical trituration were filtered (40 μm) and suspended in Matrigel (Corning) for 3D culture.
Cells were cultured in a 1:1 mixture of DMEM and F12, supplemented with Glutamax (GIBCO), N2, B27 (Invitrogen), EGF (50 ng/mL; Chemicon), bFGF (50 ng/mL; Chemicon), IGF1 (50 ng/mL; Chemicon) and a GSK3-alpha inhibitor. […]
Lgr5-positive cells were quantified after 10 days (D10) in culture in multiple conditions. […] The cells were then stained with propidium iodide (PI) and analyzed using a flow cytometer for Lgr5-GFP expression. The number of GFP-positive cells and the percentage of GFP-positive cells were quantified. […]
Lgr5 cell quantification: Cell culture media was removed and Tryple was added. […] Live Lgr5-GFP cell number was counted using PI staining and the Lgr5-GFP.

[4] = tested on: organ of Corti isolated from Lgr5-GFP mice; test: Cochlear explant: organ of Corti treated ex vivo; format: cell-based, mouse
Experimental: For cochlear explant studies, organ of Corti isolated from Lgr5-GFP mice were treated with either CHIR99021+VPA or GSK3-inhibitor XXII+VPA for 3 days. Organ of Corti were plated on a cover slip and bathed in media containing the drugs. Growth factors were not present. CHIR99021 (3 uM), GSK3-inhibitor XXII (0.3 uM), VPA (1 mM).

noise-damaged inner ear = test: Hearing recovery (ABR threshold) in noise damaged CBA/CaJ mice; format: in vivo; settings: trans-tympanic Poloxamer gel 24 h after noise exposure, ABR at 30 days, 5-40 kHz; FIG. 4
Experimental: For the mouse studies, a 17-19% (w/w) stock solution of poloxamer 407 gel (Sigma-Aldrich) was prepared by slowly adding it to cold 1× phosphate-buffered saline at pH 7.4. This solution is liquid when refrigerated or at room temperature but solidifies at body temperature. The gel was tinted blue with Evans blue dye (50 ppm) for visualization during administration.
A formulation was then prepared with 87.6 mg/ml VPA and 55.6 mg/ml CHIR99021 or 87.6 mg/ml VPA and 50 mg/ml GSK3 inhibitor XXII in 17-19% Poloxamer 407 with 5% DMSO.
CBA/CaJ mice were deafened in a noise chamber by exposure to an 8-16 kHz octave band noise band for 2 hours at 120 dB SPL. 24 hours after noise exposure, their hearing was assessed by measuring auditory brainstem responses (ABRs). The minimum sound pressure level (SPL) required for visual detection of ABR Wave I was determined at 5, 10, 20, 28.3, and 40 kHz. Following ABR measurements, a trans-tympanic injection of a Poloxamer gel drug mixture was delivered to fill the middle ear cavity. After 30 days, ABR was assessed and the improvement in hearing threshold from 24 hrs to 30 days after noise exposure was determined.

T1 sequence (P49840 whole entry, species assumed): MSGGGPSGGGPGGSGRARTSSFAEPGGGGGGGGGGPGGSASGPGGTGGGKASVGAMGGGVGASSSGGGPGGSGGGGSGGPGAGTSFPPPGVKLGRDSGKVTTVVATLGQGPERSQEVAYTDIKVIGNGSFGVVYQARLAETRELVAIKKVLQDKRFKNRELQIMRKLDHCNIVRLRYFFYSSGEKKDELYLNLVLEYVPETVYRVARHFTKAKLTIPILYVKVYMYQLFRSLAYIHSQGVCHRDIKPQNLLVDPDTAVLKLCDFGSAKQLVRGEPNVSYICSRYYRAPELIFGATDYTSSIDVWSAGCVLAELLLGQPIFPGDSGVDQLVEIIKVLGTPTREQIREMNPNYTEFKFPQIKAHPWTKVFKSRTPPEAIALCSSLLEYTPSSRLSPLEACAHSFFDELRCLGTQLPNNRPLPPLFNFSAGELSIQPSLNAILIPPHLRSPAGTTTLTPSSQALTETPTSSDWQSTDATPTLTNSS

SMILES	IC50 (GSK3-alpha [1]) [nM]	IC50 (GSK3-beta) [nM]	Expansion of Lgr5-GFP cells / Lgr5-GFP+ colonies [3]	GSK3α versus GSK3β inhibition preference (GSK3-alpha [1])	further results
O=C1NC(=O)[C@@H](c2cn3c4c(cccc24)CCC3)[C@@H]1c1c[nH]c2ccccc12 [Tivantinib]	659	1870			
COc1ccccc1[C@@H]1C2=C(CC(C)(C)CC2=O)Nc2n[nH]c(C(F)(F)F)c21 [BRD1172]	3	10			Ratio of Alpha to Beta (GSK3-alpha [2]): 3.3
N#Cc1ccc2[nH]c(O)c(-c3ccc(CN4CCOCC4)cn3)c2c1 [AZD1080]			large colonies of Lgr5-GFP+ cells were observed	preferentially inhibits GSK3α	
Cc1c[nH]c(-c2cnc(NCCNc3ccc(C#N)cn3)nc2-c2ccc(Cl)cc2Cl)n1 [CHIR99021]				preferentially inhibits GSK3β	
Cc1ccc(C(=O)Nc2c[nH]nc2C(=O)NCCCOC(C)C)cn1 [GSK-3b XXII]	2.3		large colonies of Lgr5-GFP+ cells were observed	equally inhibits GSK3α and GSK3β	Lgr5-GFP expression in organ of Corti ([4]; 3 days, 0.3 uM with VPA 1 mM, FIG. 3): increased Lgr5-GFP expression; rows of inner hair cells ([4]; 3 days, normal 1 row, FIG. 3): 2 rows; rows of outer hair cells ([4]; 3 days, normal 3 rows, FIG. 3): 6 rows; hair cell number in organ of Corti ([4]; in combination with VPA, FIG. 3, listed as GSK3 inhibitor XXII): increase in hair cell number; also recorded: increased number of hair cells; hearing recovery (noise-damaged inner ear): evidence of hearing recovery
